Like-named read-outs stand apart in the source and are kept apart here.
Tests used:
[1] = molecular target: T1, human Kv3.1 channels (hKv3.1) (Homo sapiens, UniProt P48547); assay: Measurement of Kv3 channel modulation: Kv3.1 assay (IonWorks Quattro whole-cell electrophysiology); assay type: cell-based; conditions: for Kv3.1 max R %: normalised to maximum effect of reference compound (50 microM); for EC50: read-out: Kv3.1 pEC50 (converted)
T1 sequence (P48547 1-501 limits assumed): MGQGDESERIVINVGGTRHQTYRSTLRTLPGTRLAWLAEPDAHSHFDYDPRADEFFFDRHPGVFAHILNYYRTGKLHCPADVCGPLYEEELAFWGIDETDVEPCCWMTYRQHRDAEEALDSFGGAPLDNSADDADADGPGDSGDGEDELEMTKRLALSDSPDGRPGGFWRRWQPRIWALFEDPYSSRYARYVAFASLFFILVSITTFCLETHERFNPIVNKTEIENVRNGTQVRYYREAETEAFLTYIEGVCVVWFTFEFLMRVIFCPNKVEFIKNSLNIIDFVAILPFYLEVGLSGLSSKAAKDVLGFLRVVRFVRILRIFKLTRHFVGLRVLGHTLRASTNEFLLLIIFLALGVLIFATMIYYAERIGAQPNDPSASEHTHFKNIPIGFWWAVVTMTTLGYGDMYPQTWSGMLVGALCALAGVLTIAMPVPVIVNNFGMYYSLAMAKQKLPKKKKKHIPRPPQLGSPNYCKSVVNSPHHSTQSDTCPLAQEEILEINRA
Procedure: The ability of the compounds of the invention to modulate the voltage-gated potassium channel subtypes Kv3.4/Kv3.3/Kv3.2/Kv3.1 may be determined using the following assay. Analogous methods may be used to investigate the ability of the compounds of the invention to modulate other channel subtypes.
Human embryonic kidney (HEK)-hKv3.1 cell line is generated by transfecting HEK-293 cells with an expression vector with human Kv3.1 (NM_004976.4). Cells are cultured with MEM supplemented with 10% Heat-Inactivated FBS, 2 mM L-glutamine, 1% Penicillin-Streptomycin, and 0.6 mg/ml of Geneticin (G418). HEK-hKv3.1b cells were amplified in T175 cm2 flask at 37° C. with 5% CO2, using MEM amplification medium, containing the G418 selection antibiotic (0.6 mg/ml). Cells were detached every 3-4 days, using DPBS to wash twice the flask, then TrypLE to dislodge the cells, and re-plated at a density of 2-4×10^6 cells/flask.
The day of the experiment, cells are removed from the incubator and the culture medium removed. Cells are washed with 5 ml of Dulbecco's PBS (DPBS) calcium and magnesium free and detached by the addition of 3 ml Versene (Invitrogen, Italy) followed by a brief incubation at 37° C. for 5 minutes. The flask is tapped to dislodge cells and 10 ml of DPBS containing calcium and magnesium is added to prepare a cell suspension. The cell suspension is then placed into a 15 ml centrifuge tube and centrifuged for 2 min at 1200 rpm. After centrifugation, the supernatant is removed and the cell pellet re-suspended in 4 ml of DPBS containing calcium and magnesium using a 5 ml pipette to break up the pellet. Cell suspension volume is then corrected to give a cell concentration for the assay of approximately 3 million cells per ml.
Experiments are conducted at r.t. using IonWorks Quattro™ planar array electrophysiology technology (Molecular Devices Corp.) with PatchPlate™ PPC. Stimulation protocols and data acquisition are carried out using a microcomputer (Dell Pentium 4). Planar electrode hole resistances (Rp) are determined by applying a 10 mV voltage step across each well. These measurements are performed before cell addition. After cell addition and seal formation, a seal test is performed by applying a voltage step from −80 mV to −70 mV for 160 ms. Following this, amphotericin-B solution is added to the intracellular face of the electrode to achieve intracellular access. Cells are held at −70 mV. Leak subtraction is conducted in all experiments by applying 50 ms hyperpolarizing (10 mV) prepulses to evoke leak currents followed by a 20 ms period at the holding potential before test pulses.
For hKv3.2 and hKv3.1, assays from the holding potential of −70 mV, a first test pulse at −15 mV was applied for 100 ms and after 100 ms at −70 mV a second pulse at +40 mV was applied for 50 ms. Cells were then maintained for 100 ms at −100 mV and another pulse from […] to +40 mV (duration 50 ms) was applied to clamp later the voltage at −40 mV during 200 ms
The intracellular solution contains the following (in mM): K-gluconate 100, KCl 54, MgCl2 3.2, HEPES 5, adjusted to pH 7.3 with KOH. Amphotericin-B solution is prepared as 50 mg/ml stock solution in DMSO and diluted to a final working concentration of 0.1 mg/ml in intracellular solution.
Compounds of use in the invention (or reference compounds such as N-cyclohexyl-N-[(7,8-dimethyl-2-oxo-1,2-dihydro-3-quinolinyl)methyl]-N′-phenylurea) are dissolved in dimethylsulfoxide (DMSO) at a stock concentration of 10 mM. […] Each dilution (1 μL) is transferred to another compound plate and external solution containing 0.05% pluronic acid (66 μL) is added. 3.5 μL from each plate containing a compound of the invention is added and incubated with the cells during the IonWorks Quattro™ experiment. The final assay dilution is 200 and the final compound concentrations are in the range 50 μM to 50 nM.

[2] = Determination of in vivo pharmacokinetic parameters (blood and brain concentrations); conditions: male, rat; for Kp: brain and blood, oral dosing 1 mg/kg, read-out: AUC B/B (brain/blood) ratio; for Kp at 0.5 h: brain and heart blood, intravenous, 0.5 mg/kg, 0.5 h after dose administration, read-out: Brain/Heart Blood conc @0.5 hr
Procedure: Adult male rats (Charles River, Italy) are dosed with test compound orally at 1 mg/kg (5 ml/kg, in 5% v/v DMSO, 0.5% w/v HPMC in water) and intravenously at 0.5 mg/kg (2 ml/kg, in 5% v/v DMSO 40% w/v PEG400 in saline). After oral administration, blood samples are collected under deep Isofluorane anesthesia from the portal vein and heart of each rat (1 rat per time point). After intravenous administration, serial blood samples are collected from the lateral tail vein of each rat. Blood and brain samples are collected at a single timepoint of 0.5 h after dose administration for these animals. In all cases, blood samples are collected into potassium EDTA tubes.
A further group of rats (n=1 per test compound) receive a single intravenous administration of the PgP transport inhibitor, Elacridar (3 mg/kg) shortly before the oral administration of the test compound at 1 mg/kg, as above.
Blood and brain samples can be assayed for test compound concentration using a method based on protein precipitation with acetonitrile followed by HPLC/MS-MS analysis with an optimized analytical method.
The concentrations of test compound in blood (expressed as ng/ml) and brain (expressed as ng/g) at the different time points following either oral or intravenous dosing are analysed using a non-compartmental pharmacokinetic model using WinNonLin Professional version 4.1. The following parameters are derived:
Intravenous dosing: Maximum concentration over time (Cmax), integrated concentration over time (AUC), clearance (Clb), volume of distribution (Vss), half-life (t1/2) and Brain/Heart Blood conc @0.5 hr.
Oral dosing: Cmax, time of maximum concentration (Tmax), AUC, bioavailability (F %), fraction absorbed (Fa %), blood to brain ratio (AUC B/B), and Fold-change in AUC B/B in the presence of Elacridar.

[3] = Table 2, Example compounds, rounded to one decimal place, some compounds with two data sets (n given in cell)

Structure (SMILES) | Kv3.1 max R % ([1]; Table 2, Example compounds) [%] | EC50 [1, 3] [nM] | EC50 ([1]; Table 3, Reference Examples and corresponding Examples, rounded to one decimal place) [nM] | Kp [2] | Kp at 0.5 h [2] | Kv3.1 max R % ([1]; Table 1, Reference Examples) [%] | EC50 ([1]; Table 1, Reference Examples, current at -15 mV step, normalised to 50 microM reference compound) [nM]
CC1(C)COc2cccc(Oc3ncc(-n4c(=O)[nH]c5cccnc54)cn3)c21 [Example 33, 3-[2-[(3,3-dimethyl-2H-benzofuran-4-yl)oxy]pyrimidin-5-yl]-1H-imidazo[4,5-b]pyridin-2-one] | 194 | 794 | 631 | 0.65 | 0.63 | – | –
O=c1[nH]c2cccnc2n1-c1cnc(Oc2cccc3c2C2(CC2)CO3)nc1 [Example 13, 3-(2-{2H-spiro[1-benzofuran-3,1′-cyclopropane]oxy}pyrimidin-5-yl)-1H,2H,3H-imidazo[4,5-b]pyridin-2-one] | 194 | 200 | – | 0.12 | 0.13 | – | –
O=c1[nH]c2cccnc2n1-c1ccc(Oc2cccc3c2C2(CC2)CO3)cn1 [Example 6, 3-(5-spiro[2H-benzofuran-3,1′-cyclopropane]-4-yloxy-2-pyridyl)-1H-imidazo[4,5-b]pyridin-2-one] | 221 | 2000 | – | – | – | – | –
Cc1ccc(Oc2ncc(N3C(=O)NC(C)(C)C3=O)cn2)c2c1OCC21CC1 [RE4, reference compound] | – | – | – | – | – | 158 | –
Cc1ncc2[nH]c(=O)n(-c3ccc(Oc4cccc5c4C4(CC4)CO5)nc3)c2n1 [Example 26, 2-methyl-9-(6-spiro[2H-benzofuran-3,1′-cyclopropane]-4-yloxy-3-pyridyl)-7H-purin-8-one] | 135 | 50.1 | – | < 0.1 | < 0.1 | – | –
Cc1ncc2[nH]c(=O)n(-c3ccc(Oc4cccc(OC(F)(F)F)c4)nc3)c2n1 [Example 24, 2-methyl-9-[6-[3-(trifluoromethoxy)phenoxy]-3-pyridyl]-7H-purin-8-one] | 144 | 1000 | – | 0.29 | 0.33 | – | –
CC[C@H]1NC(=O)N(c2ccc(Oc3ccc(C)c4c3C3(CC3)CO4)nc2)C1=O [RE1, reference compound] | – | – | – | – | – | 157 | –
O=c1[nH]c2cccnc2n1-c1cnc(Oc2cccc3c2C2(CC2)CO3)cn1 [Example 8, 3-(5-spiro[2H-benzofuran-3,1′-cyclopropane]-4-yloxypyrazin-2-yl)-1H-imidazo[4,5-b]pyridin-2-one] | 204 | 200 | – | < 0.1 | < 0.1 | – | –
Cc1ccc(Oc2ccc(N3C(=O)NCC(C)(C)C3=O)cn2)c2c1OCC21CC1 [RE6, reference compound] | – | – | – | – | – | 111 | 25100
Cc1ccc(Oc2ncc(-n3c(=O)[nH]c4cccnc43)cn2)c2c1OCC2(C)C [Example 39, 3-[2-[(3,3,7-trimethyl-2H-benzofuran-4-yl)oxy]pyrimidin-5-yl]-1H-imidazo[4,5-b]pyridin-2-one] | 215 | 1580 | – | – | – | – | –

— patent publication US20240327406A1, “POTASSIUM CHANNEL MODULATORS” (Autifony Therapeutics Limited, priority 2021, published 2024)
